Measured values from patent US11834401B2, “Treating and preventing diseases by modulating cell mechanics” (THE JOHNS HOPKINS UNIVERSITY, priority 2013, dated 2023).

What was measured:
[1] = tested on: NLS-tdTomato expressing Dictyostelium cells
Protocol: NLS-tdTomato expressing Dictyostelium cells were challenged with […] compounds from the ChemBridge Divert-SET library and imaged over three days. Raw data was segmented by CIMPAQ, a designed analytical platform, which rank ordered hits based on their cytokinesis or mitotic inhibitory activity, or lethality. Hits were confirmed through a dose-dependent secondary screening.
Ax3::NLS-tdTomato cells were plated on 384-well COP plates with a MicroFloSelect microplate dispenser (BioTek, Winooski, Vt.) at volumes of 80 μl with a cell concentration of 1000 cells/ml for the 24- and 48-hr time points and at the same volume with a cell concentration of 220 cells/ml for the 72-hr time point. Each plate contained four rows of untreated cells with 0.2% DMSO. For the remaining wells, […] of each small molecule maintained at the Johns Hopkins ChemCORE facility, was added, with a final DMSO concentration of 0.2%. Almost half of the ChemBridge Divert-SET library, which is a 50,000 compound chemical diversity library, was screened over a three-day period on a Becton Dickinson Pathway 855 Bioimager System using a 20× objective (NA 0.75). Each image consisted of a montage of four images collected around the center of the well, resulting in a total size of 1344×1024 pixels per image.
Secondary chemical screening was carried out in quadruplicate, with identical culturing conditions as to the primary screen. 14 mM stocks of each compounds dissolved in 100% DMSO were diluted to the following final concentrations: […], 3.5 nM, 35 nM, 350 nM, 3.5 μM, and 35 μM.
Raw image files from both the primary and secondary screening were processed through CIMPAQ (FIGS. 9E and 9F). The single wavelength fluorescence images were converted from 16-bit format to 8-bit format. The MATLAB Image Processing Toolbox was utilized to segment the images in order to identify the nuclei and cytoplasm. The number of nuclei within each segmented cell was quantified to produce a histogram of nuclei per cell for each image (FIG. 9G). All segmented cells that were coincident with the image edge were disregarded.
Image analysis using CIMPAQ: From the histogram of nuclei per cell count, the ratio of the number of multinucleate cells to the number of mononucleate cells and the ratio of the number of binucleate cells to the number of mononucleate cells were computed. Multinucleate cells are defined as cells that contain >2 nuclei. The distribution of both ratios across multiple wells were simultaneously visualized using a scatter plot, with the ratio of multinucleate cells to mononucleate cells plotted on the x-axis and the ratio of binucleate cells to mononucleate cells plotted on the y-axis (FIGS. 9H and 9I). Other information such as the average number of nuclei per cell, the mean nuclear area, and the normalized histogram with respect to total cell number were also computed.
Hit identification using CIMPAQ: Compounds that generate an increase in the number of multinucleate (>2 nuclei/cell) cells are considered cytokinesis inhibitors. Because nearly all cultured cells, including Dictyostelium, have a low background (typically <5% for WT) of non-mononucleate cells, CIMPAQ spreads the data for each sample by determining the ratio (bi:mono) of binucleate (2 nuclei/cell) to mononucleate cells and the ratio (multi:mono) of multinucleate (>2 nuclei/cell) to mononucleate cells. These two ratios then define a set of Cartesian coordinates, describing the effect of each compound on a given cell-line. The coordinates for each compound are plotted on a two-dimensional graph. CIMPAQ fits the control data to a two-dimensional Gaussian distribution (FIG. 9H) and determines the contour lines for two standard deviations (2SD), 3SD, etc. from the control mean (FIG. 9I).
Hit compounds are rank-ordered based on how many SDs away they are from the untreated wells.

myosin II = molecular target: T1, myosin II (Dictyostelium discoideum, UniProt P08799); experiment: Myosin II cortical localization by SIM, TIRF and confocal imaging; assay type: cell-based
T1 construct: expressed in transfected cells; host or cells: Dictyostelium discoideum myoII null cells rescued with GFP-myosin II
Protocol: Micropipette aspiration was used for cortical tension and creep response measurements. Confocal imaging was performed on a Zeiss 510 Meta with a 63× (numerical aperture [NA] 1.4) objective (Carl Zeiss, Jena, Germany). Epifluorescence and TIRF imaging was performed in a 22° C. temperature controlled room with an Olympus IX81 microscope using a 40× (NA 1.3) or 60× (NA 1.49) objective and a 1.4× optovar (Olympus, Center Valley, Pa.), as previously described. Image analysis was performed with ImageJ (rsb.info.nih.gov/ij).
Imaging conditions during primary screen are described above. All other image analysis was performed as previously described (Kee Y S, et al., 2012). Cells were transferred from Petri dishes (with 0.1% DMSO incubation in growth media of 4 hrs) to imaging chambers and allowed to adhere for 20 min in growth media with 0.1% DMSO. After the cells adhered, the growth media was replaced with 2-(N-morpholino)ethanesulfonic acid (MES) starvation buffer (50 mM MES, pH 6.8, 2 mM MgCl2, 0.2 mM CaCl2) with 0.1% DMS. Confocal imaging was performed on aZeiss 510 Meta with a 63× (numerical aperture [NA] 1.4) objective (Carl Zeiss, Jena, Germany). Epifluorescence and TIR imaging was performed in a 22° C. temperature controlled room with an Olympus IX81 microscope using a 40× (NA 1.3) or 60× (NA […]) objective and a 1.4× optovar (Olympus, Center Valley, Pa.), as previously described. Image analysis was performed with ImageJ (rsb.info.nih.gov/ij). Many data sets were independently analyzed by multiple investigators.

human myosin IIA = molecular target: T2, human myosin IIA (Homo sapiens, UniProt P35579); experiment: In vitro myosin assembly assay; assay type: biochemical; conditions: n=3
T2 construct: human myosin IIA (residues 1722-1960); 6xHis (N); mCherry (N); made in house; host or cells: E. coli BL-21 Star (DE3)
Source text: The sedimentation assays were used to assess myosin II assembly in cells. The assembly assay used purified proteins (N-terminal 6×His tag (SEQ ID NO: 1), fused to the mCherry fluorophore, fused to the assembly domains of Dictyostelium myosin II (residues 1533-1823), human myosin IIA (residues 1722-1960), and human myosin IIB (residues 1729-1976), and 6×His-tagged (SEQ ID NO: 1) fused Dictyostelium 14-3-3). Purified chicken nonmuscle IIB heavy meromyosin (HMM) was used for in vitro motility.
Bacterial expression plasmids coding for an N-terminal 6×His tag (SEQ ID NO: 1), fused to the mCherry fluorophore, fused to the assembly domains of Dictyostelium myosin II (residues 1533-1823), human myosin IIA (residues 1722-1960), or human myosin IIB (residues 1729-1976) were generated using standard cloning techniques.
In vitro assembly of myosin was conducted according to the method of Zhou et al, 2010 (Zhou Q et al., 2010), with a number of modifications. The protein concentration for each species in the tube was increased to […] to ensure that the smaller protein was adequately visible by Coomassie Blue staining, and the incubation time and temperature was adjusted to 30 min at the physiological temperature for each myosin species (22° C. for Dictyostelium myosin, 37° C. for human myosins). These temperatures were also used during the centrifugation step.

T1 sequence (P08799 whole entry): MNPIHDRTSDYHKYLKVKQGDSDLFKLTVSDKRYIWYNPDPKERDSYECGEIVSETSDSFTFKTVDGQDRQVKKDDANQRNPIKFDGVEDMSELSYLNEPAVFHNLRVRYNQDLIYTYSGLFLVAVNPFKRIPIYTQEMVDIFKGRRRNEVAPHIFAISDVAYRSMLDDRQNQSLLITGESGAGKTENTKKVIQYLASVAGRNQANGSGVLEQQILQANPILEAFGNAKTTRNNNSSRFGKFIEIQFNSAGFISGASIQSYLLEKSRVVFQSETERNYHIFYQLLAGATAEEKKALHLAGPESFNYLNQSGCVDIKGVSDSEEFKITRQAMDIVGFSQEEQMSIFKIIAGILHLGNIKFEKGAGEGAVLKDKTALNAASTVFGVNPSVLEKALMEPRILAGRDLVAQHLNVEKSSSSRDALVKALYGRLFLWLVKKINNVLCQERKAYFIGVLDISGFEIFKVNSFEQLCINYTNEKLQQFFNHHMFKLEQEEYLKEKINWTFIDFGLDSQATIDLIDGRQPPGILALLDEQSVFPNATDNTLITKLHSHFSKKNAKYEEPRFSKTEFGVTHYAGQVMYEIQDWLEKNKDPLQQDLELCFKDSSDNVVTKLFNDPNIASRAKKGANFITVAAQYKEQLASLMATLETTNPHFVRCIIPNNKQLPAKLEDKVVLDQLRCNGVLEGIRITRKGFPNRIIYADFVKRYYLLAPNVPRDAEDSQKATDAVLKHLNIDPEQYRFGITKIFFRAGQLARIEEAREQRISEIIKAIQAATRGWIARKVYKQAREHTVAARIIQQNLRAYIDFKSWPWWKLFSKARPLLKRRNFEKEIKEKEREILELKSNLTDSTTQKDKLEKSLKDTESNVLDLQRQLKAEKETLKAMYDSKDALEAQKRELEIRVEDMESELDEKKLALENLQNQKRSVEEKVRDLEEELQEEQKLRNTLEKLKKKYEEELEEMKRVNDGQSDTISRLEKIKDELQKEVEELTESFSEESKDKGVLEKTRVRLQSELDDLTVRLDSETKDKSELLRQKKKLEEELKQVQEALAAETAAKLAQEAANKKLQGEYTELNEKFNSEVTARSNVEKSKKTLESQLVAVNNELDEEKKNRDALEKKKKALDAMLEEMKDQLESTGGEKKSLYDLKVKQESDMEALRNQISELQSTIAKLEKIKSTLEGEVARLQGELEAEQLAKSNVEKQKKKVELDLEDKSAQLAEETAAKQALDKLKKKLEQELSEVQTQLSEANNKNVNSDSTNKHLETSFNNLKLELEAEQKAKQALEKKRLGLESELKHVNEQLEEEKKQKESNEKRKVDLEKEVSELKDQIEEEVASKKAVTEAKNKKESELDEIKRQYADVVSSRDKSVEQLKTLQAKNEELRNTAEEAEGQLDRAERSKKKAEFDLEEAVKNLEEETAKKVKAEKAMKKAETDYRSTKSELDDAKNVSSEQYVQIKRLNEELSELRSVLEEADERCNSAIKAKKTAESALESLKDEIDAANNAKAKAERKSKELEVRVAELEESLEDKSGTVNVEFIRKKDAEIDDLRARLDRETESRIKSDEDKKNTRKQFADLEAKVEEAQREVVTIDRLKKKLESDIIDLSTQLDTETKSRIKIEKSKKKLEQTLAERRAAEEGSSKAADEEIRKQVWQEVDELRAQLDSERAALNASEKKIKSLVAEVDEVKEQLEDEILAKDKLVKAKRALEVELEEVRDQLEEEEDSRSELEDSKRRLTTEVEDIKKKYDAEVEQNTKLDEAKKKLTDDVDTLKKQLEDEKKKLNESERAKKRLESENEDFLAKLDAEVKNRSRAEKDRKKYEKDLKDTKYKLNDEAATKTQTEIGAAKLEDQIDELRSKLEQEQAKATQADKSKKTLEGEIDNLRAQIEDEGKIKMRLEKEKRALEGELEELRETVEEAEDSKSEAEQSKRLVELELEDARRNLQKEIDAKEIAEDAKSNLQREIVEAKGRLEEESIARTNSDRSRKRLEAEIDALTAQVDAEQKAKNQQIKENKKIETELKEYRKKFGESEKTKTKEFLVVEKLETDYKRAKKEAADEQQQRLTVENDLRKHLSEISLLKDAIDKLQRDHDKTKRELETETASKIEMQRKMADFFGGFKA
T2 sequence (P35579 1722-1960): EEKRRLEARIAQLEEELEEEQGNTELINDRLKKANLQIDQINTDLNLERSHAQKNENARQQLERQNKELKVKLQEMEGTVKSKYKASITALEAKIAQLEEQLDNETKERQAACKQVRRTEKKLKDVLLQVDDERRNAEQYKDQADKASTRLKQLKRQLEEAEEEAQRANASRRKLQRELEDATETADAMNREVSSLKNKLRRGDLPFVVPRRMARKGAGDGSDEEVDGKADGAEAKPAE

Q: `Nc1ccc(Cl)c(Cl)c1` [3,4-DCA, 3,4-dichloroaniline] was tested. Which “cytokinesis inhibition / cellular effect of a single component” value ([1]; compound alone) did it give?
A: limited cellular effect

Q: And the “changes in myosin II cortical distribution (TIRF)” value (myosin II; 500 nM time course)?
A: Neither 3,4-DCA nor the urea result in changes in myosin II cortical distribution

Q: What about the “in vitro assembly vs DMSO control” value (human myosin IIA) of the same compound?
A: unaffected

Q: `CC(=O)c1ccc(O)cc1` [4-HAP, 4-hydroxyacetophenone] was tested. Which “lethality to Dictyostelium cells” value ([1]; 5000 nM) did it give?
A: lethal

Q: What about the “time to significant localization of GFP-myosin II” value (myosin II; 500 nM) of the same compound?
A: ≤ 10 min

Q: What about the “time for myosin II localization to revert to pre-treatment levels after removal” value (myosin II; 500 nM, washout) of the same compound?
A: ≤ 15 min

Q: What about the “increase in myosin II localization at the cortex by TIRF” value (myosin II; 500 nM, within 10 min) of the same compound?
A: 2 fold

Q: And the “subset of cells with BTFs accumulated into ribbon-like rings” value (myosin II; TIRF)?
A: 15%

Q: What about the “increase in myosin II at the cortex” value (myosin II; TIRF time course) of the same compound?
A: 2.5 fold

Q: What about the “time for myosin II bipolar thick filaments to accumulate at the cortex” value (myosin II; TIRF time course) of the same compound?
A: ≤ 5 min

Q: What about the “time to steady state of myosin II cortical accumulation” value (myosin II; TIRF time course) of the same compound?
A: 15 min

Q: And the “myosin II accumulation in cortexillin I deleted cells” value (myosin II; cortI::GFPmyo cells)?
A: abolished

Q: What about the “cortical enrichment of myosin II (cortex to cytoplasm)” value (myosin II; each degradation product tested) of the same compound?
A: 4-HAP alone drives myosin II relocalization

Q: What about the “in vitro assembly vs DMSO control” value (human myosin IIA) of the same compound?
A: unaffected
